ChEMBL document CHEMBL1201862, “PubChem BioAssay data set” (2004)
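Briefly, cells in 96-well plates were exposed to five compound concentrations for 48 h, and endpoints were estimated by linear interpolation. GI50 is the concentration that inhibits growth by half.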 The source made the active and inactive calls. Cut-off read from the data, not from the text of the source: active = GI50 up to about 1.1 µM and inactive = higher.

What was measured:
Assay in all cases: growth of human tumour cells (NCI), 48 h
786-0 = test system: 786-0
A498 = test system: A498
A549 = test system: A549
ACHN = test system: ACHN
CAKI-1 = test system: CAKI-1
CCRF-CEM = test system: CCRF-CEM
COLO 205 = test system: COLO 205
DLD-1 = test system: DLD-1
DMS-114 = test system: DMS-114
DMS-273 = test system: DMS-273
EKVX = test system: EKVX
HCC 2998 = test system: HCC 2998
HCT-116 = test system: HCT-116
HCT-15 = test system: HCT-15
HL-60 = test system: HL-60
HOP-18 = test system: HOP-18
HOP-62 = test system: HOP-62
HOP-92 = test system: HOP-92
HT-29 = test system: HT-29
IGROV-1 = test system: IGROV-1
K562 = test system: K562
KM-20L2 = test system: KM-20L2
KM12 = test system: KM12
LXFL 529 = test system: LXFL 529
M14 = test system: M14
M19-MEL = test system: M19-MEL
MOLT-4 = test system: MOLT-4
Malme-3M = test system: Malme-3M
NCI-H226 = test system: NCI-H226
NCI-H23 = test system: NCI-H23
NCI-H460 = test system: NCI-H460
NCI-H522 = test system: NCI-H522
OVCAR-3 = test system: OVCAR-3
OVCAR-4 = test system: OVCAR-4
OVCAR-5 = test system: OVCAR-5
OVCAR-8 = test system: OVCAR-8
RPMI-8226 = test system: RPMI-8226
RXF 631 = test system: RXF 631
SF-268 = test system: SF-268
SF-295 = test system: SF-295
SF-539 = test system: SF-539
SK-MEL-5 = test system: SK-MEL-5
SK-OV-3 = test system: SK-OV-3
SN12C = test system: SN12C
SNB-19 = test system: SNB-19
SNB-75 = test system: SNB-75
SNB-78 = test system: SNB-78
SW-620 = test system: SW-620
TK-10 = test system: TK-10
U-251 = test system: U-251
UACC-257 = test system: UACC-257
UACC-62 = test system: UACC-62
UO-31 = test system: UO-31
LOX IMVI = test system: LOX IMVI
RXF 393 = test system: RXF 393
SK-MEL-28 = test system: SK-MEL-28
SK-MEL-2 = test system: SK-MEL-2
SR = test system: SR

## O=C(/C=C/c1ccccc1)c1ccc(Cl)cc1Cl
786-0
  GI50: 17.9 µM (inactive)
A498
  GI50: 18.3 µM (inactive)
A549
  GI50: 25.8 µM (inactive)
ACHN
  GI50: 18.2 µM (inactive)
CAKI-1
  GI50: 25.9 µM (inactive)
CCRF-CEM
  GI50: 7.24 µM (inactive)
COLO 205
  GI50: 20.5 µM (inactive)
DLD-1
  GI50: 17.1 µM (inactive)
DMS-114
  GI50: 17.3 µM (inactive)
DMS-273
  GI50: 15.5 µM (inactive)
EKVX
  GI50: 28.4 µM (inactive)
HCC 2998
  GI50: 23.3 µM (inactive)
HCT-116
  GI50: 11.2 µM (inactive)
HCT-15
  GI50: 13.1 µM
HL-60
  GI50: 14.8 µM (inactive)
HOP-18
  GI50: 22 µM (inactive)
HOP-62
  GI50: 94.4 µM (inactive)
HOP-92
  GI50: 35.9 µM (inactive)
HT-29
  GI50: 16.8 µM (inactive)
IGROV-1
  GI50: 18.5 µM (inactive)
K562
  GI50: 10 µM (inactive)
KM-20L2
  GI50: 19.5 µM (inactive)
KM12
  GI50: 15.9 µM (inactive)
LXFL 529
  GI50: 15.1 µM (inactive)
M14
  GI50: 23.2 µM (inactive)
M19-MEL
  GI50: 23.4 µM (inactive)
MOLT-4
  GI50: 18.1 µM (inactive)
Malme-3M
  GI50: 25.1 µM (inactive)
NCI-H226
  GI50: 29.9 µM (inactive)
NCI-H23
  GI50: 27.5 µM (inactive)
NCI-H460
  GI50: 17.6 µM (inactive)
NCI-H522
  GI50: 13.4 µM (inactive)
OVCAR-3
  GI50: 20 µM (inactive)
OVCAR-4
  GI50: 20.7 µM (inactive)
OVCAR-5
  GI50: 20.6 µM (inactive)
OVCAR-8
  GI50: 15.1 µM (inactive)
RPMI-8226
  GI50: 3.76 µM (inactive)
RXF 631
  GI50: 38 µM (inactive)
SF-268
  GI50: 28.4 µM (inactive)
SF-295
  GI50: 19.9 µM (inactive)
SF-539
  GI50: 20.8 µM (inactive)
SK-MEL-5
  GI50: 14.1 µM (inactive)
SK-OV-3
  GI50: 46.9 µM (inactive)
SN12C
  GI50: 23.1 µM (inactive)
SNB-19
  GI50: 27.5 µM (inactive)
SNB-75
  GI50: 30.8 µM (inactive)
SNB-78
  GI50: 22.6 µM (inactive)
SW-620
  GI50: 4.8 µM (inactive)
TK-10
  GI50: 31.8 µM (inactive)
U-251
  GI50: 19.6 µM (inactive)
UACC-257
  GI50: 23.8 µM (inactive)
UACC-62
  GI50: 15.9 µM (inactive)
UO-31
  GI50: > 100 µM (inactive)

## Cc1c(CCl)c(=O)oc2c(C)c3occ(CCl)c(=O)c3cc12
786-0
  GI50: > 100 µM (inactive)
A498
  GI50: > 100 µM (inactive)
A549
  GI50: > 100 µM (inactive)
ACHN
  GI50: > 100 µM (inactive)
CCRF-CEM
  GI50: 3.18 µM (inactive)
COLO 205
  GI50: 16 µM (inactive)
DMS-114
  GI50: 20.2 µM (inactive)
EKVX
  GI50: > 100 µM (inactive)
HCC 2998
  GI50: > 100 µM (inactive)
HCT-15
  GI50: 25 µM
HL-60
  GI50: 4.72 µM (inactive)
HOP-18
  GI50: 17.4 µM (inactive)
HOP-62
  GI50: > 100 µM (inactive)
IGROV-1
  GI50: 20.3 µM (inactive)
K562
  GI50: 6.43 µM (inactive)
KM-20L2
  GI50: > 100 µM (inactive)
KM12
  GI50: > 100 µM (inactive)
LOX IMVI
  GI50: 14.9 µM (inactive)
LXFL 529
  GI50: 15.2 µM (inactive)
M14
  GI50: 17 µM (inactive)
M19-MEL
  GI50: 16.2 µM (inactive)
MOLT-4
  GI50: 6.35 µM (inactive)
Malme-3M
  GI50: > 100 µM (inactive)
NCI-H226
  GI50: 23.9 µM (inactive)
NCI-H23
  GI50: 31.6 µM (inactive)
NCI-H460
  GI50: > 100 µM (inactive)
NCI-H522
  GI50: 13.4 µM (inactive)
OVCAR-3
  GI50: > 100 µM (inactive)
OVCAR-5
  GI50: > 100 µM (inactive)
OVCAR-8
  GI50: > 100 µM (inactive)
RPMI-8226
  GI50: 8.69 µM (inactive)
RXF 393
  GI50: 15.7 µM (inactive)
RXF 631
  GI50: 16 µM (inactive)
SF-268
  GI50: 24.7 µM (inactive)
SF-295
  GI50: > 100 µM (inactive)
SF-539
  GI50: 21 µM (inactive)
SK-MEL-28
  GI50: 17.5 µM (inactive)
SK-MEL-2
  GI50: > 100 µM (inactive)
SK-MEL-5
  GI50: > 100 µM (inactive)
SK-OV-3
  GI50: > 100 µM (inactive)
SN12C
  GI50: 23.4 µM (inactive)
SNB-19
  GI50: 25.8 µM (inactive)
SNB-75
  GI50: 17.2 µM (inactive)
SW-620
  GI50: > 100 µM (inactive)
TK-10
  GI50: > 100 µM (inactive)
U-251
  GI50: > 100 µM (inactive)
UACC-257
  GI50: > 100 µM (inactive)
UACC-62
  GI50: 16.3 µM (inactive)
UO-31
  GI50: 17.5 µM (inactive)

## C(/C=C/N1CCCC1)=C\c1nc(N2CCCC2)c2ccccc2n1
786-0
  GI50: 16.6 µM (inactive)
A498
  GI50: > 100 µM (inactive)
A549
  GI50: 48.5 µM (inactive)
ACHN
  GI50: 16.9 µM (inactive)
CAKI-1
  GI50: 19.7 µM (inactive)
CCRF-CEM
  GI50: 13.2 µM (inactive)
COLO 205
  GI50: 14.4 µM (inactive)
DLD-1
  GI50: 18.7 µM (inactive)
DMS-114
  GI50: 18.5 µM (inactive)
DMS-273
  GI50: 18.4 µM (inactive)
EKVX
  GI50: 20.1 µM (inactive)
HCC 2998
  GI50: 17.4 µM (inactive)
HCT-116
  GI50: 19.7 µM (inactive)
HCT-15
  GI50: 16.4 µM
HL-60
  GI50: 23.4 µM (inactive)
HOP-18
  GI50: 16.5 µM (inactive)
HOP-62
  GI50: 19.5 µM (inactive)
HT-29
  GI50: 20.7 µM (inactive)
IGROV-1
  GI50: 21.6 µM (inactive)
K562
  GI50: 12.5 µM (inactive)
KM-20L2
  GI50: 24.9 µM (inactive)
KM12
  GI50: 17.1 µM (inactive)
LOX IMVI
  GI50: 17.5 µM (inactive)
LXFL 529
  GI50: 14.7 µM (inactive)
M14
  GI50: 18 µM (inactive)
M19-MEL
  GI50: 17 µM (inactive)
MOLT-4
  GI50: 17.3 µM (inactive)
Malme-3M
  GI50: 18.3 µM (inactive)
NCI-H226
  GI50: 16.7 µM (inactive)
NCI-H23
  GI50: 18.2 µM (inactive)
NCI-H460
  GI50: 18.2 µM (inactive)
OVCAR-3
  GI50: 15.7 µM (inactive)
OVCAR-4
  GI50: 13.9 µM (inactive)
OVCAR-5
  GI50: 15.6 µM (inactive)
OVCAR-8
  GI50: 34.1 µM (inactive)
RPMI-8226
  GI50: 17.4 µM (inactive)
RXF 631
  GI50: 7.73 µM (inactive)
SF-268
  GI50: 23.9 µM (inactive)
SF-295
  GI50: 20.4 µM (inactive)
SF-539
  GI50: 18.3 µM (inactive)
SK-MEL-28
  GI50: 22.9 µM (inactive)
SK-MEL-2
  GI50: 22.1 µM (inactive)
SK-MEL-5
  GI50: 19.1 µM (inactive)
SK-OV-3
  GI50: 18.6 µM (inactive)
SN12C
  GI50: 13.5 µM (inactive)
SNB-19
  GI50: 18.5 µM (inactive)
SNB-75
  GI50: 16.6 µM (inactive)
SNB-78
  GI50: 20.7 µM (inactive)
SR
  GI50: 13.6 µM (inactive)
SW-620
  GI50: 14.3 µM (inactive)
TK-10
  GI50: 41 µM (inactive)
UACC-257
  GI50: 33.2 µM (inactive)
UACC-62
  GI50: 21.2 µM (inactive)
UO-31
  GI50: 15.7 µM (inactive)
